Measured values taken from patent publication US4352944A, “Treatment of cashew nut shell liquid” (Minnesota Mining and Manufacturing Company, priority 1980, dated 1982).
“Also recorded” adds a separate entry of the source.

Legend:
[1] = Effectiveness of bases in cardol removal / cardol-cardanol separation (Example 7); conditions: for effect on separation / suitability, in words: general statement
[2] = determined in aqueous solution; literature values; cited from earlier work
[3] = Runs with different amines on distilled CNSL, GC of distillate (Example 2); conditions: 0.2 mole amine, seven days, 0.5 mm Hg, fraction 180-185° C.
Procedure: A series of runs was performed using different amines. 0.2 mole of the amines indicated in the table was mixed with 300 g of distilled CNSL (cardanol:cardol 90:10, 1.0 mole). When the mixture was stirred a mild exothermic reaction was noted. The mixture was allowed to stand for seven days at room temperature then distilled at 0.5 mm Hg. The major fraction (boiling at 180° to 185° C.) was analyzed by gas chromatography for cardanol and cardol.

[4] = Effect of length of time of DETA treatment (Example 3)
From the text: (§1) Technical CNSL of Brazilian origin and distilled CNSL obtained from it were used in the present work. Material of this origin tends to be richer in cardol. The average molecular weight was taken to be 306 based upon cardanol (average dienoid, m.w. 300) and cardol (m.w. 314, average trienoid). Three amines were used, namely diethylenetriamine (V), N-(2-aminoethyl)ethanolamine (VI) and diethanolamine (VII), which are structurally related. [drawing 3] Different molar proportions of the triamine (DETA) (V) were used with distilled CNSL (1.0 mole), from 0.25, 0.50 to 1.0. In the case of Technical CNSL (having more cardol initially present) the molar proportions of DETA were 1.0, 1.6 and 2.0 per mole of the CNSL. The mixtures in all cases were kept for 7 days and then distilled under high vacuum. After recovery of the amine, one fraction of cardanol which was considerably purified was collected. […] The distillation residue was still quite mobile and from this, cardol and the polymer from the original CNSL could be recovered.
(§2) In the distillations reported in the following Tables 1 and 2 a Vigreux column was not used but merely a short still head section. All products were examined by gas-liquid chromatography (hereinafter GLC) on a gas chromatographic apparatus equipped with an integrator upon a 3% SE30 type column after trimethylsilylation with bis-(trimethylsilyl)acetamide in a pyridine solution. In the calculation of the results, response fractions have not been used. The peak areas as printed out by integration have been normalized (expressed in % form).
Technical CNSL was treated with DETA (1 mole proportion) and the mixture distilled as in Example 1 after it had been allowed to stand for 24 hours instead of 7 days. […] Probably an overnight procedure might well suffice.

[5] = Distillation of distilled CNSL treated with amines (Example 1, Table 2)
From the text: as §1, §2
(9.18 g distilled CNSL was used with different

[6] = Distillation of Technical CNSL treated with amines (Example 1, Table 1); conditions: for % composition of distillate: 2-me-Cardol / % composition of distillate: Cardanol / % composition of distillate: Cardol / % composition of residue: 2-me-Cardol / % composition of residue: Cardanol / % composition of residue: Cardol: short still head
From the text: as §1
In a typical experiment, technical CNSL (9.18 g) and DETA (3.09 g: 1 mole) were interacted at ambient temperature and the mixture after 7 days distilled through a short Vigreux type Claisen flask.
as §2
(9.18 g of Technical CNSL was used)

NCCNCCN [DETA, diethylenetriamine]
Effectiveness (in cardol removal) [1]: excellent
Kb [2]: 4.5 × 10^-5
% composition of distillate: Cardanol [3]: 98.9%
% composition of distillate: Cardol [3]: 0.0%
effectiveness of 24 hour treatment ([4]; 24 h, 1 mole proportion): quite effective
% Composition of distillate: 2-Methyl-Cardol ([4]; 24 h with DETA (1 M)): 1.6%
% composition of distillate: Cardanol ([4]; 24 h with DETA (1 M)): 91.7%
% composition of distillate: Cardol ([4]; 24 h with DETA (1 M)): 6.6%
% Composition of distillate: 2-Methyl-Cardol ([4]; 7 days with DETA (1 M)): 1.8%
% composition of distillate: Cardanol ([4]; 7 days with DETA (1 M)): 92.0%
% composition of distillate: Cardol ([4]; 7 days with DETA (1 M)): 6.2%
% composition of distillate: 2-me-Cardol ([5]; amine 0.25 M): 0.7%
% composition of distillate: Cardanol ([5]; amine 0.25 M): 95.4%
% composition of distillate: Cardol ([5]; amine 0.25 M): 3.9%
% composition of distillate: 2-me-Cardol ([5]; amine 0.50 M): 0.4%
% composition of distillate: Cardanol ([5]; amine 0.50 M): 97.7%
% composition of distillate: Cardol ([5]; amine 0.50 M): 2.0%
% composition of distillate: 2-me-Cardol ([5]; amine 1.0 M): 2.0%
% composition of distillate: Cardanol ([5]; amine 1.0 M): 93.8%
% composition of distillate: Cardol ([5]; amine 1.0 M): 4.2%
cardol after distillation ([6]; 1 molar proportion, no Vigreux column, from ca 20%): ~6%
impurity in distilled cardanol by TLC ([6]; 1 mole DETA, 7 days, short Vigreux type flask): no cardanol
cardol after distillation, in words ([6]; Vigreux type column): almost zero
% composition of distillate: 2-me-Cardol ([6]; amine 1 M, 7 days): 1.9%
% composition of distillate: Cardanol ([6]; amine 1 M, 7 days): 93.0%
% composition of distillate: Cardol ([6]; amine 1 M, 7 days): 5.1%
% composition of residue: 2-me-Cardol ([6]; amine 1 M, 7 days): 3.2%
% composition of residue: Cardanol ([6]; amine 1 M, 7 days): 85.6%
% composition of residue: Cardol ([6]; amine 1 M, 7 days): 11.2%
% composition of distillate: 2-me-Cardol ([6]; amine 1.6 M, 7 days): 2.1%
% composition of distillate: Cardanol ([6]; amine 1.6 M, 7 days): 91.1%
% composition of distillate: Cardol ([6]; amine 1.6 M, 7 days): 6.8%
% composition of residue: 2-me-Cardol ([6]; amine 1.6 M, 7 days): 4.24%
% composition of residue: Cardanol ([6]; amine 1.6 M, 7 days): 75.1%
% composition of residue: Cardol ([6]; amine 1.6 M, 7 days): 21.7%
% composition of distillate: 2-me-Cardol ([6]; amine 2 M, 7 days): 1.1%
% composition of distillate: Cardanol ([6]; amine 2 M, 7 days): 93.1%
% composition of distillate: Cardol ([6]; amine 2 M, 7 days): 5.8%
% composition of residue: 2-me-Cardol ([6]; amine 2 M, 7 days): 7.6%
% composition of residue: Cardanol ([6]; amine 2 M, 7 days): 63.2%
% composition of residue: Cardol ([6]; amine 2 M, 7 days): 29.1%

OCCNCCO [Diethanolamine, diethanolamine]
Effectiveness (in cardol removal) [1]: not effective; also recorded: ineffective
effect on separation / suitability, in words [1]: not effective
% composition of distillate: 2-me-Cardol ([6]; amine 1.5 M, 7 days): 2.3%
% composition of distillate: Cardanol ([6]; amine 1.5 M, 7 days): 88.0%
% composition of distillate: Cardol ([6]; amine 1.5 M, 7 days): 9.7%
% composition of residue: 2-me-Cardol ([6]; amine 1.5 M, 7 days): 10.4%
% composition of residue: Cardanol ([6]; amine 1.5 M, 7 days): 55.7%
% composition of residue: Cardol ([6]; amine 1.5 M, 7 days): 33.9%

NCCNCCO [N-(2-Aminoethyl)ethanolamine, N-(2-aminoethyl)ethanolamine]
Effectiveness (in cardol removal) [1]: excellent
Kb [2]: 6.6 × 10^-5
% composition of distillate: 2-me-Cardol ([6]; amine 1.5 M, 7 days): 2.3%
% composition of distillate: Cardanol ([6]; amine 1.5 M, 7 days): 92.4%
% composition of distillate: Cardol ([6]; amine 1.5 M, 7 days): 5.3%
% composition of residue: 2-me-Cardol ([6]; amine 1.5 M, 7 days): 4.7%
% composition of residue: Cardanol ([6]; amine 1.5 M, 7 days): 75.5%
% composition of residue: Cardol ([6]; amine 1.5 M, 7 days): 19.8%

C1CCNCC1 [Piperidine, piperidine]
Effectiveness (in cardol removal) [1]: excellent
Kb [2]: 1.7 × 10^-3
% composition of distillate: Cardanol [3]: 96.1%
% composition of distillate: Cardol [3]: 2.2%

N [ammonium hydroxide]
effect on separation / suitability, in words [1]: not suitable

CCCCN [n-butylamine]
Effectiveness (in cardol removal) [1]: not effective; also recorded: ineffective
effect on separation / suitability, in words [1]: not suitable
Kb [2]: 3.9 × 10^-4
% composition of distillate: Cardanol [3]: 94.5%
% composition of distillate: Cardol [3]: 5.5%

CCN(CC)CC [triethylamine]
Effectiveness (in cardol removal) [1]: excellent
Kb [2]: 4.5 × 10^-4
